Consider nine compounds from ChEMBL document CHEMBL1123638 (J Med Chem, 1987).

As usually defined, the pKa is the pH at which an ionisable group is half protonated. Read a high pKa as a group that holds its proton tightly. By logP is commonly meant a log measure of how a compound divides between an organic and an aqueous phase.

Data set [1] concerns the target T1, Dihydrofolate reductase (Rattus norvegicus, UniProt Q920D2).
T1 sequence (Q920D2 whole entry): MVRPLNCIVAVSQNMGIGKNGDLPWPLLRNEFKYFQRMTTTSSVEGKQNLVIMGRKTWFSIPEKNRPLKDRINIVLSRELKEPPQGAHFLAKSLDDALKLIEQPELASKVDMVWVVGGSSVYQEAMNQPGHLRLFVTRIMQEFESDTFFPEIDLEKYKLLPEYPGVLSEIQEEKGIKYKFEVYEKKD
Put plainly: Inhibitory activity against dihydrofolate reductase (DHFR) enzyme from rat liver. As to conditions: read-out: I50.

Another data set concerns Salmonella. As to the kind of experiment: In vitro antibacterial activity against Salmonella typhi (CN512).
The test system of a further data set is Staphylococcus aureus. Put plainly: In vitro antibacterial activity against Staphylococcus aureus (CN491).
The subject of another data set is Escherichia coli. As to the kind of experiment: In vitro antibacterial activity against Escherichia coli (CN314).
Another data set concerns Proteus vulgaris. Put plainly: In vitro antibacterial activity against Proteus vulgaris (CN3296).
Another data set has as its system Shigella flexneri. As to the kind of experiment: In vitro antibacterial activity against Shigella flexneri (CN6007).
For data set [2], the target named is T2, Dihydrofolate reductase (Gallus gallus, UniProt P00378).
T2 sequence (P00378 whole entry): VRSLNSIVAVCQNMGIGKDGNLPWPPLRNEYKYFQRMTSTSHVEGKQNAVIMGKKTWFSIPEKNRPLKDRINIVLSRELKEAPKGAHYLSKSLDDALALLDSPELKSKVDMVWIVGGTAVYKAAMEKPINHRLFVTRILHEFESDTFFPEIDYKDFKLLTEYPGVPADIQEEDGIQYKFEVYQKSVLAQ
As to the kind of experiment: Inhibitory activity against dihydrofolate reductase (DHFR) enzyme from chicken liver. As to conditions: read-out: I50.

A further data set relates to Klebsiella aerogenes. Put plainly: In vitro antibacterial activity against Enterobacter aerogenes (2200/86).
Data set [3] deals with Bifunctional dihydrofolate reductase-thymidylate synthase (Plasmodium berghei str. ANKA, UniProt Q27713). As to the kind of experiment: Inhibitory activity against dihydrofolate reductase (DHFR) enzyme from Plasmodium berghei. As to conditions: read-out: I50.
Sequence of Bifunctional dihydrofolate reductase-thymidylate synthase (Q27713 whole entry): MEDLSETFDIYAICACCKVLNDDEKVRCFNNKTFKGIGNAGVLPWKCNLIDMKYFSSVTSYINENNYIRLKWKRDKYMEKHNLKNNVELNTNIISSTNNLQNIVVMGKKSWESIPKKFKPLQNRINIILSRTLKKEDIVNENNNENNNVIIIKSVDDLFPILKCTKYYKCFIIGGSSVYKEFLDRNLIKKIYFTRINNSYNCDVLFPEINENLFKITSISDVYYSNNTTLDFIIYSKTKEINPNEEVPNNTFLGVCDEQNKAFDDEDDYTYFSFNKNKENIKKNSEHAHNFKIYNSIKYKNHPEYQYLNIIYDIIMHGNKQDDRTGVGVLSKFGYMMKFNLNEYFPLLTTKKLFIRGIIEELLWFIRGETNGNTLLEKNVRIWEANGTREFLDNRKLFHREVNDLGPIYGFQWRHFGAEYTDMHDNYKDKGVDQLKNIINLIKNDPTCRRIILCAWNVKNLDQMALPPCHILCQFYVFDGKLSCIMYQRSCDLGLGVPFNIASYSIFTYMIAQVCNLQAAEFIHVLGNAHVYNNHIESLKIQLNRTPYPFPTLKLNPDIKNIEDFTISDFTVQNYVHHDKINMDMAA
The next data set deals with Klebsiella pneumoniae. Put plainly: microbe, parasite or virus in culture.
Data set [4] in a line: Acid dissociation constant was determined. Type of data set: ADME.
A short description of data set [5]: Partition coefficient (logP). The class given is physicochemical. As to conditions: octanol/water.

≈ marks a conversion by molar mass, not a printed value.

Description for Klebsiella pneumoniae: In vitro antibacterial activity against Klebsiella pneumoniae (CN 3632)

Regarding `COc1ccc(Cc2cnc(N)nc2N)cc1`, the IC50 at Dihydrofolate reductase [1] came to 170 µM.

Turning to `CC(C)c1ccc(Cc2cnc(N)nc2N)cc1`, the MIC worked out at 16 µg/mL (≈ 66 µM) against Salmonella; 8 µg/mL (≈ 33 µM) in the data set on Staphylococcus aureus; 16 µg/mL (≈ 66 µM) against Escherichia coli; 125 µg/mL (≈ 516 µM) against Proteus vulgaris; 32 µg/mL (≈ 132 µM) in the data set on Shigella flexneri. Besides, at Dihydrofolate reductase [1], the IC50 is 210 µM.

For `COc1ccc(Cc2cnc(N)nc2N)cc1OC` [DIAVERIDINE], the MIC in the data set on Salmonella is 0.1 µg/mL (≈ 0.384 µM); in the data set on Staphylococcus aureus, 5 µg/mL (≈ 19.2 µM); with Escherichia coli it was 0.5 µg/mL (≈ 1.92 µM); in the data set on Klebsiella aerogenes, 0.5 µg/mL (≈ 1.92 µM); against Proteus vulgaris it was 5 µg/mL (≈ 19.2 µM); against Klebsiella pneumoniae, 5 µg/mL (≈ 19.2 µM). Besides, the MIC with Shigella flexneri came out at 0.5 µg/mL (≈ 1.92 µM). For the same compound, the results for the IC50 (on Dihydrofolate reductase [2]; on Dihydrofolate reductase [1]; in data set [3]) were 300 µM, 78 µM and 0.21 µM, respectively.

In the case of `COc1cc(Cc2cnc(N)nc2N)cc(OC)c1OC` [TRIMETHOPRIM], the MIC came out at 0.03 µg/mL (≈ 0.103 µM) against Salmonella; 0.3 µg/mL (≈ 1.03 µM) with Staphylococcus aureus; 0.1 µg/mL (≈ 0.344 µM) against Escherichia coli; 0.3 µg/mL (≈ 1.03 µM) in the data set on Klebsiella aerogenes; 1 µg/mL (≈ 3.44 µM) in the data set with Proteus vulgaris; 1 µg/mL (≈ 3.44 µM) against Klebsiella pneumoniae. In the data set with Shigella flexneri, this compound registered an MIC of 0.1 µg/mL (≈ 0.344 µM).

Take `CCc1ccc(Cc2cnc(N)nc2N)cc1CC`: the MIC in the data set on Salmonella came to 3 µg/mL (≈ 11.7 µM); against Staphylococcus aureus, 3 µg/mL (≈ 11.7 µM); in the data set with Escherichia coli, 3 µg/mL (≈ 11.7 µM); in the data set on Klebsiella aerogenes, 10 µg/mL (≈ 39 µM); against Proteus vulgaris, 30 µg/mL (≈ 117 µM); against Klebsiella pneumoniae, 30 µg/mL (≈ 117 µM). In the data set on Shigella flexneri, the MIC was determined as 10 µg/mL (≈ 39 µM). The IC50 came out at 120 µM on Dihydrofolate reductase [2], 59 µM at Dihydrofolate reductase [1] and 0.068 µM in data set [3].

As for `CCc1cc(Cc2cnc(N)nc2N)cc(CC)c1CC`, the MIC is 1 µg/mL (≈ 3.52 µM) against Salmonella; 0.1 µg/mL (≈ 0.352 µM) against Staphylococcus aureus; 1 µg/mL (≈ 3.52 µM) against Escherichia coli; 10 µg/mL (≈ 35.2 µM) in the data set with Klebsiella aerogenes; 30 µg/mL (≈ 105 µM) with Proteus vulgaris; 10 µg/mL (≈ 35.2 µM) against Klebsiella pneumoniae. For the same compound, the MIC in the data set with Shigella flexneri amounted to 3 µg/mL (≈ 10.5 µM). The compound further registered a pKa in data set [4] of 7.12. Besides, the IC50 is 33 µM on Dihydrofolate reductase [2], 38 µM on Dihydrofolate reductase [1] and 0.073 µM in [3]. This compound also came in with a logP in [5] of 1.33.

With `CCc1ccc(Cc2cnc(N)nc2N)cc1`, the MIC against Salmonella was 10 µg/mL (≈ 43.8 µM); with Staphylococcus aureus it was 30 µg/mL (≈ 131 µM); against Escherichia coli, 10 µg/mL (≈ 43.8 µM); with Klebsiella aerogenes, 10 µg/mL (≈ 43.8 µM); against Proteus vulgaris, 30 µg/mL (≈ 131 µM); with Klebsiella pneumoniae it was 30 µg/mL (≈ 131 µM). The MIC in the data set on Shigella flexneri amounted to 10 µg/mL (≈ 43.8 µM). Moreover, the IC50 at Dihydrofolate reductase [1] was above 40 µM.

With `CCc1ccc(Cc2cnc(N)nc2N)cc1C(C)C`, the MIC against Salmonella came to 10 µg/mL (≈ 37 µM); with Staphylococcus aureus, 3 µg/mL (≈ 11.1 µM); against Escherichia coli, 30 µg/mL (≈ 111 µM); in the data set on Klebsiella aerogenes it was 100 µg/mL (≈ 370 µM); against Proteus vulgaris, 100 µg/mL (≈ 370 µM); against Klebsiella pneumoniae, 100 µg/mL (≈ 370 µM). The MIC against Shigella flexneri was 30 µg/mL (≈ 111 µM). The IC50 at Dihydrofolate reductase [1] is 29 µM.

Take `CC(C)(C)c1ccc(Cc2cnc(N)nc2N)cc1`: the MIC was 10 µg/mL (≈ 39 µM) against Salmonella; 10 µg/mL (≈ 39 µM) in the data set on Staphylococcus aureus; 10 µg/mL (≈ 39 µM) in the data set with Escherichia coli; 30 µg/mL (≈ 117 µM) in the data set with Klebsiella aerogenes; 100 µg/mL (≈ 390 µM) against Proteus vulgaris; 100 µg/mL (≈ 390 µM) against Klebsiella pneumoniae. In addition, the MIC against Shigella flexneri came out at 30 µg/mL (≈ 117 µM). Also, the IC50 on Dihydrofolate reductase [1] came to 230 µM.
